Legend:
[1] = test system: tSTAT3, pSTAT3 and PD-L1 in MDA-MB-231 cells; assay: Immunoblot (slot blot) of tSTAT3, pSTAT3 and PD-L1; format: cell-based, human; conditions: MDA-MB-231, 3, 6 and 24 hours, β-actin normalized, 50-100 ug/ml
[2] = mouse, in vivo
TC83 in BE3M27 = format: cell-based, Venezuelan Equine Encephalitis (TC83) virus
[3] = rats
[4] = test system: VEGF production by retinal epithelial cells (ARPE-19)
[5] = test system: B7-H3, OX-2 and PD-L1 on SJSA-1 osteosarcoma cells; assay: Flow cytometry of checkpoint molecule cell surface expression; format: cell-based, human
Description: Cells were then harvested and stained with the following antibodies: CD276 (Clone MIH-42, Biolegend), CD274 (Clone 29E.2A3, Bilegend), and CD200 (Clone OX-104, Bilegend). Upon staining, samples were run through a BD Celesta Flow Cytometer and data were analyzed using FlowJo software.
Checkpoint molecules are expressed on the surface of tumor cells and ultimately stifle the functioning of activated of T cells, contributing to the immunosuppressive tumor microenvironment. Inflammatory cytokines such as IL-6 and IFN-γ drive the expression of checkpoint molecules such as PD-L1 (CD274), B7-H3 (CD276), and OX-2 (CD200). […] B7-H3 decreased by approximately 3-fold, OX-2 decreased by approximately 4-fold, and PD-L1 decreased by approximately 4-fold. […] Interferon (IFN)-y is known to induce PD-L1 expression and both the intracellular and membrane staining increased following treatment with IFN-γ (data not shown).

SJSA = assay: MTT assay
HT-1080 = assay: MTT assay
[6] = target: Human KRAS Wildtype protein (Homo sapiens, UniProt P01116); assay: Biacore 3000 binding affinity
[7] = test system: human malignancies with constitutive pSTAT3 expression; assay: MTT assay, summary over cell lines; conditions: with or without an activating KRAS mutation, p<0.001
MDA-MB-231 tumors = conditions: 5 mg/kg BID intraperitoneal for 14 days, 7-day observation
12-Lipoxygenase = assay: Binding to irrelevant antigen
[8] = test system: Zika DAKAR, Senegal in Vero; assay: Viral inhibition; format: cell-based, Zika virus
[9] = test system: pSTAT3 in HEp-2 and PANC-1 cells; assay: IL-6 stimulation and inhibition of p-STAT3 nuclear translocation; format: cell-based, human; conditions: IL-6 stimulation of HEp-2 and PANC-1 cells
Description: IL-6 stimulation and inhibition of p-STAT3 nuclear translocation: The cells (HEp-2 and PANC-1) were grown on 4 Permanox chambers slides. […] The following day, cells were stimulated with IL-6 (Peprotech, 100 ng/ml) for 15 minutes. After stimulation, the chamber slides were immediately fixed in ice cold 100% methanol for 10 minutes at […]. The slides were dried and proceeded with the previously mentioned IFA steps. Slides were blocked with 3% BSA in PBS at room temperature for 1 hour, then the primary antibody, Stat3 (Cell Signaling Technology) overnight at 4° C. The secondary antibody anti-mouse IgG (H & L), Alexa Fluor 488 (Cell Signaling Technology) was added for 1 hour at room temperature. Lastly, the chamber slides were washed and mounted with mounting media and viewed in the Nikon Fluorescence microscope.
Reporter cell assays were done to measure luciferase expression from HEK 293 cells transfected with a construct linking the STAT3 promoter to the luciferase gene.

ENBOV (Ebola) in HeLa = format: cell-based, Ebola virus; conditions: HeLa, ENBOV (Ebola)

Substance: SBT-100: 15 kDa camelid single domain antibody (VHH), SEQ ID NO: 1, binds both STAT3 and KRAS
- Levels of tSTAT3, pSTAT3 and PD-L1 [1]: reduced levels
- Biological half-life [2]: 12-24 hours
- Comment (TC83 in BE3M27): Inhibits Venezuelan Equine
- EC50 (TC83 in BE3M27): 5.94 µM
- Serum half-life [3]: 1 h
- Cell toxicity [4]: No cell toxicity was observed
- Suppression of VEGF protein production ([4]; 100 μg/ml, 12, 24, and 48-hour time points): > 99%
- Decrease of B7-H3 cell surface expression ([5]; SJSA-1, IFN-γ stimulation): approximately 3 fold
- Decrease of OX-2 cell surface expression ([5]; SJSA-1, IFN-γ stimulation): approximately 4 fold
- Decrease of PD-L1 cell surface expression ([5]; SJSA-1, IFN-γ stimulation): approximately 4 fold
- Inhibition of PD-L1 cell surface expression ([5]; within 24-48 hours): 10 fold
- IC50 (SJSA): 3.39 µM
- % Inhibition in 3 days with SBT-100 (SEQ ID NO: 1) ug/ml or 6.7 uM) (SJSA; 3 days, 6.7 uM): 83% (P < 0.001)
- IC50 (HT-1080; HT-1080): 2.13 µM
- % Inhibition in 3 days with SBT-100 (SEQ ID NO: 1) ug/ml or 6.7 uM) (HT-1080; HT-1080, 3 days, 6.7 uM): 86% (P < 0.001)
- Kd [6]: 0.0042 µM
- Tumor cell inhibitory effects [7]: 85-93%
- Survival and body weight (MDA-MB-231 tumors): all the mice survived treatment and maintained their normal weight
- Tumor growth (MDA-MB-231 tumors): rapid suppression of tumor growth
- Binding to irrelevant antigen (12-Lipoxygenase): does not bind
- Comment [8]: Inhibits Zika virus replication
- EC50 [8]: 5.45 µM
- Nuclear translocation of pSTAT3 [9]: inhibited nuclear translocation of pSTAT3
- Comment (ENBOV (Ebola) in HeLa): Inhibits Ebola virus replication
- EC50 (ENBOV (Ebola) in HeLa): 1.27 µM

Source: patent US20260184773A1, “THERAPEUTIC SINGLE DOMAIN ANTIBODY” (priority 2021, published 2026)
